Measurements: patent US20100016232A1, “Treatment Of Inflammatory Diseases With Mammal Beta Defensins” (Novozymes A/S, priority 2008, published 2010)
Marks after values point to notes of the source that are not given here.

What was measured:
Type in all cases: in vivo
[1] = system: DSS-induced colitis in the mouse; test: 10-day DSS-induced colitis, colon histological score (Example 5); details: 1 mg/kg p.o. daily, day 10
Excerpt: (§1) Animals were divided into 5 experimental groups.
Their colons were removed and their length and weight measured after exclusion of the caecum.
(§2) Two sections (proximal and distal) of colon were taken from each animal and preserved in neutral buffered formalin for subsequent histological analysis (haematoxylin and eosin staining) according to the following scoring system:
Two sections (proximal and distal) of colon were taken from each animal, processed for histological analysis (haematoxylin and eosin staining) and scored by a blind observer according to the histological scoring system described above.

[2] = system: DSS-induced colitis in the mouse; test: 10-day DSS-induced colitis, colon histological score (Example 6)
Procedure: as §2
(§3) Example 6 was carried out essentially as described in Example 5. The differences are indicated below.
(§4) Animals were divided into 9 experimental groups.
Two sections (proximal and distal) of colon were taken from each animal, processed for histological analysis (haematoxylin and eosin staining), and scored by a blind observer according to the scoring system described above.

[3] = system: DSS-induced colitis in the mouse; test: 10-day DSS-induced colitis, Disease Activity Index (Example 6); design: key: clinical Disease Activity Index (stool, bleeding, weight loss)
Procedure: (§5) Daily clinical assessment of DSS-treated animals was carried out, with the calculation of a validated clinical Disease Activity Index (DAI) ranging from 0 to 4 according to the following parameters: stool consistency, presence or absence of rectal bleeding and weight loss:
as §3, §4
The animals in group F received one dose i.v. and another dose s.c. (12 hours after the i.v. dose) of the corresponding test item for 10 consecutive days.
The animals in group G received one dose every two days of the corresponding test item for 10 consecutive days.
Methylprednisolone was given orally at a dose of 1 mg/kg (group H) and 10 mg/kg (group J) in a dosing volume of 5 ml/kg body weight, once daily for 10 consecutive days.

[4] = system: DSS-induced colitis in the mouse; test: 10-day DSS-induced colitis, Disease Activity Index (Example 5); details: 1 mg/kg p.o. daily
Procedure: as §1
Colitis was induced in mice by supplementing their drinking water with DSS 2% for 7 days.
as §5
Bodyweight loss was calculated as the percent difference between the original bodyweight (Day 1) and the actual bodyweight on each experimental day (2-10).
The appearance of diarrhoea is defined as mucus/faecal material adherent to anal fur. Rectal bleeding is defined as diarrhoea containing visible blood/mucus or gross rectal bleeding. The maximum score of the DAI each day is 12.

For `C[C@H]1C[C@@H]2[C@H]([C@@H](O)C[C@@]3(C)[C@H]2CC[C@]3(O)C(=O)COC(=O)CCC(=O)O)[C@@]2(C)C=CC(=O)C=C12` [Methylprednisolone 21-hemisuccinate, reference compound], the “Histology Score Distal Colon” value [1] was 3.70, the “Histology Score Proximal Colon” value [1] was 2.80* and the “Histology Score Proximal Colon” value ([1]; listed as prednisolone) was 2.8±0.5. For the same compound, the “Histology Score Distal Colon, mean” value ([2]; Group H, 1 mg/kg p.o.) was 3.00***, the “Histology Score Proximal Colon, mean” value ([2]; Group H, 1 mg/kg p.o.) was 1.40 and the “Histology Score Distal Colon, mean” value ([2]; Group J, 10 mg/kg p.o.) was 2.70***. For the same compound, the “Histology Score Proximal Colon, mean” value ([2]; Group J, 10 mg/kg p.o.) was 1.40, the “DAI score, mean” value ([3]; Group H, 1 mg/kg p.o., Day 1) was 0.00 and the “DAI score, mean” value ([3]; Group H, 1 mg/kg p.o., Day 2) was 0.50. For the same compound, the “DAI score, mean” value ([3]; Group H, 1 mg/kg p.o., Day 3) was 0.50, the “DAI score, mean” value ([3]; Group H, 1 mg/kg p.o., Day 4) was 0.40 and the “DAI score, mean” value ([3]; Group H, 1 mg/kg p.o., Day 5) was 1.10. For the same compound, the “DAI score, mean” value ([3]; Group H, 1 mg/kg p.o., Day 6) was 3.80, the “DAI score, mean” value ([3]; Group H, 1 mg/kg p.o., Day 7) was 5.90 and the “DAI score, mean” value ([3]; Group H, 1 mg/kg p.o., Day 8) was 6.40. The “DAI score, mean” value ([3]; Group H, 1 mg/kg p.o., Day 9) was 5.60*, the “DAI score, mean” value ([3]; Group H, 1 mg/kg p.o., Day 10) was 5.60* and the “DAI score, mean” value ([3]; Group J, 10 mg/kg p.o., Day 1) was 0.00. The “DAI score, mean” value ([3]; Group J, 10 mg/kg p.o., Day 2) was 0.30, the “DAI score, mean” value ([3]; Group J, 10 mg/kg p.o., Day 3) was 0.70 and the “DAI score, mean” value ([3]; Group J, 10 mg/kg p.o., Day 4) was 0.80. The “DAI score, mean” value ([3]; Group J, 10 mg/kg p.o., Day 5) was 1.30, the “DAI score, mean” value ([3]; Group J, 10 mg/kg p.o., Day 6) was 2.00 and the “DAI score, mean” value ([3]; Group J, 10 mg/kg p.o., Day 7) was 3.20**. For the same compound, the “DAI score, mean” value ([3]; Group J, 10 mg/kg p.o., Day 8) was 4.80**, the “DAI score, mean” value ([3]; Group J, 10 mg/kg p.o., Day 9) was 5.20* and the “DAI score, mean” value ([3]; Group J, 10 mg/kg p.o., Day 10) was 4.00***. For the same compound, the DAI score ([4]; Day 1) was 0.00, the DAI score ([4]; Day 2) was 0.10 and the DAI score ([4]; Day 3) was 0.00. The DAI score ([4]; Day 4) was 2.60, the DAI score ([4]; Day 5) was 2.50 and the DAI score ([4]; Day 6) was 2.60. For the same compound, the DAI score ([4]; Day 7) was 3.10, the DAI score ([4]; Day 8) was 2.50* and the DAI score ([4]; Day 9) was 3.80*. The DAI score ([4]; Day 10) was 4.90**.
